Data on 15 compounds can be found in patent US8119633B2, “Substituted sulfonamide compounds” (Gruenenthal GmbH, priority 2007, dated 2012).

Broadly, the inhibition is the drop in the measured response relative to a control, in per cent.

Molecules are shown by their SMILES.

One experiment deals with T1, human bradykinin receptor 1 (B1R) (Homo sapiens, UniProt P46663).
T1 construct: expressed in transfected cells; host or cells: CHO K1 cells
T1 sequence (P46663 1-353): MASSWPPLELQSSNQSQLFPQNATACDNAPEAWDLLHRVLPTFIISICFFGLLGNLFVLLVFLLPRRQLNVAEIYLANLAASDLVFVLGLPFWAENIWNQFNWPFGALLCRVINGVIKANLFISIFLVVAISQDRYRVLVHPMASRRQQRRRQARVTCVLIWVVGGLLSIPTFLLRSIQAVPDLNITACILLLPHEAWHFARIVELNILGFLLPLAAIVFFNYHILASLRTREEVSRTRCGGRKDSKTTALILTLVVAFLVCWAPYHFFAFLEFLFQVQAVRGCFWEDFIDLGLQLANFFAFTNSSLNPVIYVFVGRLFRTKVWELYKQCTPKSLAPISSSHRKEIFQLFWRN
The experiment is described as follows: Functional study on the bradykinin receptor 1 (B1R), human: FLIPR Ca2+ influx assay. The format is cell-based. To be noted: test substance 10 μM; CHO K1 cells transfected with human B1R; Lys-Des-Arg9-bradykinin at EC80; Ca2+ influx (Fluo-4, FLIPR); read-out: B1R antagonism, human [10 μM] % inhibition. The source says: Functional Study on the Human Bradykinin Receptor 1 (B1R)
(§1) The agonistic or antagonistic action of substances can be determined on the bradykinin receptor 1 (B1R) of the species human and rat using the following assay. According to this assay, the Ca^2+ influx through the channel is quantified with the aid of a Ca^2+-sensitive dye (Fluo-4 type, Molecular Probes Europe BV, Leiden, Netherlands) using a Fluorescent Imaging Plate Reader (FLIPR, Molecular Devices, Sunnyvale, USA).
(§2) Chinese hamster ovary cells (CHO K1 cells) which have been stably transfected with the human B1R gene (hB1R cells) or with the B1R gene of the rat (rB1R cells) are used. For functional studies, the cells are plated out on black 96-well plates having a clear base (BD Biosciences, Heidelberg, Germany or Greiner, Frickenhausen, Germany) in a density of 20,000-35,000 cells/well. The cells are incubated overnight at 37° C. and with 5% CO2 in culture medium (hB1R cells: Nutrient Mixture Ham's F12, Gibco Invitrogen GmbH, Karlsruhe, Germany or DMEM, Sigma-Aldrich, Taufkirchen, Germany; rB1R cells: D-MEM/F12, Gibco Invitrogen GmbH, Karlsruhe, Germany), with 10 vol. % FBS (fetal bovine serum, Gibco Invitrogen GmbH, Karlsruhe, Germany or PAN Biotech GmbH, Aidenbach, Germany).
(§3) On the following day, the cells are loaded for 60 minutes at 37° C. with 2.13 μM Fluo-4 (Molecular Probes Europe BV, Leiden, Netherlands) in HBSS buffer (Hank's buffered saline solution, Gibco Invitrogen GmbH, Karlsruhe, Germany) with 2.5 mM probenecid (Sigma-Aldrich, Taufkirchen, Germany) and 10 mM HEPES (Sigma-Aldrich, Taufkirchen, Germany). The plates are then washed twice with HBSS buffer, and HBSS buffer additionally containing 0.1% BSA (bovine serum albumin; Sigma-Aldrich, Taufkirchen, Germany), 5.6 mM glucose and 0.05% gelatin (Merck KGaA, Darmstadt, Germany) is added to the plates. After incubation for a further 20 minutes at room temperature, the plates are inserted into the FLIPR for Ca^2+ measurement. Alternatively, washing is carried out with buffer A (15 mM HEPES, 80 mM NaCl, 5 mM KCl, 1.2 mM CaCl2, 0.7 mM MgSO4, 2 g/l glucose, 2.5 mM probenecid) followed by loading with buffer A with added 2.5 μM Fluo-4 and 0.025% Pluronic F127 (Sigma-Aldrich, Taufkirchen, Germany). The cells are then washed twice with buffer A and incubated for 30 minutes at room temperature with buffer A additionally containing 0.05% BSA and 0.05% gelatin and are then inserted into the FLIPR for Ca^2+ measurement.
(§4) The Ca^2+-dependent fluorescence is measured before and after the addition of substances (λex=488 nm, λem=540 nm). Quantification is carried out by measuring the highest fluorescence intensity (FC, fluorescence counts) over time.
(§5) The FLIPR protocol consists of two substance additions. Test substances (10 μM) are first pipetted onto the cells and the Ca^2+ influx is compared with the control (hB1R: Lys-Des-Arg^9-bradykinin>=0.5 nM; rB1R: Des-Arg^9-bradykinin 10 μM). This gives the activation in %, based on the Ca^2+ signal after addition of Lys-Des-Arg^9-bradykinin (>=0.5 nM) or Des-Arg^9-bradykinin (10 μM).
(§6) After 10-20 minutes' incubation, Lys-Des-Arg^9-bradykinin (hB1R) or Des-Arg^9-bradykinin (rB1R) is applied in the concentration of the EC80, and the influx of Ca^2+ is likewise determined.
(§7) Antagonists lead to suppression of the Ca^2+ influx. The % inhibition compared with the maximum achievable inhibition is calculated.
(§8) In order to determine the IC50 value, the substances are added in various concentrations. Duplicate or triplicate determinations (n=2 or n=3) are carried out, and these are repeated in at least one further independent experiment (N>=2).
With `COc1ccc(S(=O)(=O)N2CCc3ccccc3C2CC(=O)NCC2CCC(C(c3ccc(F)cc3)N(C)C)CC2)cc1` (centres unmarked) [Example 19, N-{4-[dimethylamino-(4-fluoro-phenyl)-methyl]-cyclohexylmethyl}-2-[2-(4-methoxy-benzenesulfonyl)-1,2,3,4-tetrahydro-isoquinolin-1-yl]-acetamide], the inhibition at 10 µM worked out at 42.7%.
`COc1ccc(S(=O)(=O)N2CCc3ccccc3C2CC(=O)NC2CCC(C(c3ccc(F)cc3)N(C)C)CC2)cc1` (centres unmarked) [Example 14, N-{4-[dimethylamino-(4-fluoro-phenyl)-methyl]-cyclohexyl}-2-[2-(4-methoxybenzenesulfonyl)-1,2,3,4-tetrahydro-isoquinolin-1-yl]-acetamide]: the inhibition at 10 µM turned out to be 86.9%.

The next experiment deals with T2, bradykinin receptor 1 (B1R) of the rat (Rattus norvegicus, UniProt P97583).
T2 construct: expressed in transfected cells; host or cells: CHO K1 cells
T2 sequence (P97583 1-337): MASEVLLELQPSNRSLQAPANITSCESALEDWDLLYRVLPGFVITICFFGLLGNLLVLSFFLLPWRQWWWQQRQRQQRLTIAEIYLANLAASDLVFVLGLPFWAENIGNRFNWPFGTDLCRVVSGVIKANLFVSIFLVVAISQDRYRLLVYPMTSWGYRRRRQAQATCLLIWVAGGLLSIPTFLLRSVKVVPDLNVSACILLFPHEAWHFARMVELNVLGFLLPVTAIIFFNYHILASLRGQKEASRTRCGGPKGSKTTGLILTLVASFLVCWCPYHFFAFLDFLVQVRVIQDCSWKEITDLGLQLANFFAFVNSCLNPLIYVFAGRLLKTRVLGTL
In words: Functional study on the bradykinin receptor 1 (B1R), rat: FLIPR Ca2+ influx assay. The format is cell-based. The note with it: test substance 10 μM; CHO K1 cells transfected with rat B1R; Des-Arg9-bradykinin at EC80; Ca2+ influx (Fluo-4, FLIPR); read-out: B1R antagonism, rat [10 μM] % inhibition.
Excerpt: as §1, §2, §3, §4, §5, §6, §7, §8
As to `COc1ccc(S(=O)(=O)N2CCc3ccccc3C2CC(=O)NCC2CCC(C(c3ccc(F)cc3)N(C)C)CC2)cc1` (centres unmarked) [Example 19, N-{4-[dimethylamino-(4-fluoro-phenyl)-methyl]-cyclohexylmethyl}-2-[2-(4-methoxy-benzenesulfonyl)-1,2,3,4-tetrahydro-isoquinolin-1-yl]-acetamide], the inhibition at 10 µM came to 41%.
`COc1ccc(S(=O)(=O)N2CCc3ccccc3C2CC(=O)NC2CCC(C(c3ccc(F)cc3)N(C)C)CC2)cc1` (centres unmarked) [Example 14, N-{4-[dimethylamino-(4-fluoro-phenyl)-methyl]-cyclohexyl}-2-[2-(4-methoxybenzenesulfonyl)-1,2,3,4-tetrahydro-isoquinolin-1-yl]-acetamide]: the inhibition at 10 µM came out at 75%.
Regarding `CN(C)C(c1cccc(F)c1)C1CCC(CCNC(=O)c2c(N(C)S(=O)(=O)c3ccc(Cl)c(Cl)c3)sc3c2CCCC3)CC1` (centres unmarked) [Example 51, 2-(3,4-dichloro-N-methylphenylsulfonamido)-N-(2-(4-((dimethylamino)(3-fluorophenyl)methyl)cyclohexyl)ethyl)-4,5,6,7-tetrahydrobenzo[b]thiophene-3-carboxamide], the inhibition at 10 µM stood at 1%.
In the case of `CN(C)C(CCc1ccccc1)C1CCC(CNC(=O)C2Cc3ccccc3N2S(=O)(=O)c2ccc(Cl)c(Cl)c2)CC1` (centres unmarked) [Example 96, 1-(3,4-dichlorophenylsulfonyl)-N-((4-(1-(dimethylamino)-3-phenylpropyl)cyclohexyl)methyl)indoline-2-carboxamide], the inhibition at 10 µM was found to be 12%.
On to `CN(C)C(c1cccs1)C1CCC(CNC(=O)c2ccccc2N(C)S(=O)(=O)c2ccc(Cl)c(Cl)c2)CC1` (centres unmarked) [Example 42, 2-[(3,4-dichloro-benzenesulfonyl)-methyl-amino]-N-[4-(dimethylamino-thiophen-2-yl-methyl)-cyclohexylmethyl]-benzamide], for which the inhibition at 10 µM is 3%.
Consider `COc1ccc(S(=O)(=O)N(C)C2(C(=O)NCCC3CCC(C(c4ccccc4)N(C)C)CC3)CCCCC2)cc1` (centres unmarked) [Example 100, N-(2-(4-((dimethylamino)(phenyl)methyl)cyclohexyl)ethyl)-1-(4-methoxy-N-methylphenylsulfonamido)cyclohexanecarboxamide], for which the inhibition at 10 µM is -2%.
For `CN(C)C(c1ccccc1)C1CCC(NC(=O)c2c(N(C)S(=O)(=O)c3ccc(Cl)c(Cl)c3)sc3c2CCCC3)CC1` (centres unmarked) [Example 12, 2-[(3,4-dichloro-benzenesulfonyl)-methyl-amino]-4,5,6,7-tetrahydrobenzo[b]thiophene-3-carboxylic acid [4-(dimethylamino-phenyl-methyl)cyclohexyl]-amide], the inhibition at 10 µM is 0%.
Turning to `CN(C)C(c1ccc(F)cc1)C1CCC(CNC(=O)c2c(N(C)S(=O)(=O)c3ccc(Cl)c(Cl)c3)sc3c2CCCC3)CC1` (centres unmarked) [Example 47, 2-[(3,4-dichloro-benzenesulfonyl)-methyl-amino]-4,5,6,7-tetrahydrobenzo[b]thiophene-3-carboxylic acid {4-[dimethylamino-(4-fluoro-phenyl)methyl]-cyclohexylmethyl}-amide], the inhibition at 10 µM was found to be 12%.
Consider `CN(C)C(c1ccccc1)C1CCC(CNC(=O)c2c(N(C)S(=O)(=O)c3ccc(Cl)c(Cl)c3)sc3c2CCCC3)CC1` (centres unmarked) [Example 46, 2-[(3,4-dichloro-benzenesulfonyl)-methyl-amino]-4,5,6,7-tetrahydrobenzo[b]thiophene-3-carboxylic acid [4-(dimethylamino-phenyl-methyl)cyclohexylmethyl]-amide], for which the inhibition at 10 µM was -9%.
`CN(C)C(c1ccc(Cl)cc1)C1CCC(CNC(=O)c2c(N(C)S(=O)(=O)c3ccc(Cl)c(Cl)c3)sc3c2CCCC3)CC1` (centres unmarked) [Example 48, 2-[(3,4-dichloro-benzenesulfonyl)-methyl-amino]-4,5,6,7-tetrahydrobenzo[b]thiophene-3-carboxylic acid {4-[(4-chloro-phenyl)-dimethylamino-methyl]-cyclohexylmethyl}-amide]: the inhibition at 10 µM was 19%.
The same measure, in the same setting: as for `CN(C)C(c1ccc(Cl)cc1)C1CCC(CCNC(=O)c2c(N(C)S(=O)(=O)c3ccc(Cl)c(Cl)c3)sc3c2CCCC3)CC1` (centres unmarked) [Example 50, N-(2-(4-((4-chlorophenyl)(dimethylamino)methyl)cyclohexyl)ethyl)-2-(3,4-dichloro-N-methylphenylsulfonamido)-4,5,6,7-tetrahydrobenzo[b]thiophene-3-carboxamide], the figure is 11%.
Consider `CN(C)C(c1cccs1)C1CCC(CNC(=O)c2c(N(C)S(=O)(=O)c3ccc(Cl)c(Cl)c3)sc3c2CCCC3)CC1` (centres unmarked) [Example 49, 2-[(3,4-dichloro-benzenesulfonyl)-methyl-amino]-4,5,6,7-tetrahydrobenzo[b]thiophene-3-carboxylic acid [4-(dimethylamino-thiophen-2-yl-methyl)cyclohexylmethyl]-amide], for which the inhibition at 10 µM amounted to 19%.
For the compound `CN(C)C(c1ccc(F)cc1)C1CCC(CCNC(=O)c2c(N(C)S(=O)(=O)c3ccc(Cl)c(Cl)c3)sc3c2CCCC3)CC1` (centres unmarked) [Example 52, 2-(3,4-dichloro-N-methylphenylsulfonamido)-N-(2-(4-((dimethylamino)(4-fluorophenyl)methyl)cyclohexyl)ethyl)-4,5,6,7-tetrahydrobenzo[b]thiophene-3-carboxamide], the inhibition at 10 µM was -22%.
Consider `CN(C)C(c1ccc(F)cc1)C1CCC(NC(=O)C2Cc3ccccc3N2S(=O)(=O)c2ccc(Cl)c(Cl)c2)CC1` (centres unmarked) [Example 94, 1-(3,4-dichlorophenylsulfonyl)-N-(4-((dimethylamino)(4-fluorophenyl)methyl)cyclohexyl)indoline-2-carboxamide], for which the inhibition at 10 µM was -19%.
Regarding `CN(C)C(c1cccs1)C1CCC(CCNC(=O)c2c(N(C)S(=O)(=O)c3ccc(Cl)c(Cl)c3)sc3c2CCCC3)CC1` (centres unmarked) [Example 53, 2-(3,4-dichloro-N-methylphenylsulfonamido)-N-(2-(4-((dimethylamino)(thiophen-2-yl)methyl)cyclohexyl)ethyl)-4,5,6,7-tetrahydrobenzo[b]thiophene-3-carboxamide], the inhibition at 10 µM turned out to be 12%.
